# Experimental data published in patent US20240383911A1, “AZAINDAZOLE MACROCYCLE COMPOUNDS AND USES THEREOF” (BROADENBIO CO., LTD, priority 2021, published 2024).
# Experiments:
# HPK1 = HPK1 (Homo sapiens, UniProt Q92918); assay: HPK1 kinase activity inhibition test (ADP-Glo, luminescence); format: biochemical; conditions: 2 μM ATP, 5 nM HPK1, read-out: IC50, inhibitory effects on HPK1 kinase activity
# In short: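 Autophosphorylation assay without added substrate: HPK1 preincubated with compound 10 min at 25 °C, then ATP added for 60 min at 25 °C; final DMSO 0.5%. ADP measured by ADP-Glo luminescence; IC50 from four-parameter nonlinear fit.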
# MV-4-11 cells = assay: Detection of MV-4-11 cell activity (CellTiter-Glo); format: cell-based; conditions: Homo sapiens, MV4-11, 120 h, 5 days, CTG, read-out: IC50, inhibitory effects on MV-4-11 cell activity
# Method: The CellTiter-Glo (CTG) luminescence method was used to detect the effect of compounds on the activity of MV-4-11 cells.
# Tested compounds: compound prepared in the Examples of the present invention.
# Add 100 μL containing 20,000 MV-4-11 (human myeloid monocytic leukemia cells, from the Cell Bank of the Chinese Academy of Sciences, Cat. No. SCSP-5031) cell suspension to 96-well flat-bottom clear-bottomed cell plates (Corning, Cat #3603), and then add 100 μL of cell culture medium containing a series of concentrations of the compound to be tested, with a total volume of 200 μL per well. The final gradient concentrations of the compounds were 500 nM, 125 nM, 31.25 nM, 7.813 nM, 1.953 nM, 0.488 nM, 0.122 nM, 0.031 nM, and 0.008 nM, and the final DMSO content was 0.5%. Set cells with the cell culture medium containing 0.5% DMSO but without compounds as the 100% control; set the culture medium wells without cells as 0% background control. Incubate the cell plate in a humidified incubator at 37° C. and 5% CO2 for 5 days. After 5 days, take out the cell plate, centrifuge (1000 rpm) for 5 minutes, remove and discard 100 μL supernatant, add 100 μL CTG reagent (Promega, Cat #G7572) to each well, shake at room temperature for 10 minutes to promote cell lysis, and incubate at room temperature for 30 minutes to stabilize the luminescence signal. Use a microplate reader (Molecular Device, i3X) to read the Luminescent fluorescence value, use GraphPad Prism 5.0 software to analyze the original data, use nonlinear S-curve regression to fit the data to obtain the dose-effect curve (cell survival rate %), and calculate the IC50 value.
# Human Jurkat-E6-1 cells = assay: Detection of IL-2 production by Jurkat cells using ELISA; format: cell-based; conditions: anti-CD3/anti-CD28 stimulation 24 hours, read-out: Percentage of the amount of IL-2 secreted by compound treated vs DMSO-treated cells; for activity at 0.33 µM: tested compound 0.33 μM; for activity at 1 µM: tested compound 1.0 μM
# In short: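 Jurkat E6-1 cells were pre-incubated with compound for 30 min at 37 °C, then stimulated 24 h on plate-bound anti-CD3 plus soluble anti-CD28. Secreted IL-2 in supernatant was measured by sandwich ELISA (450 nm) against a standard curve and expressed as % of DMSO-treated cells.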
# KDR = KDR (Homo sapiens, UniProt P35968); assay: KDR kinase activity inhibition test (HTRF); format: biochemical; conditions: read-out: IC50, inhibitory effects on KDR kinase activity
# Method: (§1) Tested compounds: compounds prepared in the Examples of this invention.
# (§2) Prepare compound stock solution: dissolve the test compound in 100% DMSO to make a 10 mM stock solution. Dilute the stock solution of the test compound by 5 times with 100% DMSO, make a 4-fold equal dilution in a 96-well dilution plate, add 1 μL of the compound to 39 μL of kinase reaction buffer (1×kinase buffer, 5 mM MgCl2, 1 mM DTT), and shake on a microplate shaker for 20 minutes. 4×Positive control (4 μL of positive compound solution of the starting concentration, add 196 μL of kinase buffer) and 4×negative control (4 μL of 100% DMSO, add 196 μL of kinase buffer).
# (§3) (1) Use 1×kinase reaction buffer to prepare 2.5×KDR kinase solution (250 μM), transfer 2 μL of the kinase solution to the 384 reaction plate, and add 1 μL of the test compound solution of gradient concentration to the 384 reaction plate (Greiner, Cat #784075), centrifuge for 1 minute (1000 rpm), and incubate at 25° C. for 10 minutes.
# (§4) (2) Use 1×kinase reaction buffer to prepare 2.5×TK-substrate-biotin (2.5 μM) and 2.5×ATP (2.5 μM), mix well, and add 2 μL of the TK-substrate-biotin/ATP solution to the 384 reaction plate, centrifuge for 30 seconds (1000 rpm), and incubate at 25° C. for 40 minutes.
# (§5) (3) Use HTRF detection buffer to prepare 2×Sa-XL 665 (125 nM) and 1×TK-antibody-Cryptate. Add 5 μL of a mixture of Sa-XL 665 and TK-antibody-Cryptate solutions to each well, centrifuge for 30 seconds (1000 rpm), and react at room temperature for 1 hour.
# (§6) (4) The fluorescence signal is read using a Biotek multi-function plate reader, and the IC50 (half inhibitory concentration) of the compound is obtained using a four-coefficient nonlinear fitting formula.
# FLT3 = biological target: T1, FLT3 (Homo sapiens, UniProt P36888); assay: FLT3 kinase activity inhibition test (HTRF); format: biochemical; conditions: read-out: IC50, inhibitory effects on FLT3 kinase activity
# T1 sequence (P36888 27-993): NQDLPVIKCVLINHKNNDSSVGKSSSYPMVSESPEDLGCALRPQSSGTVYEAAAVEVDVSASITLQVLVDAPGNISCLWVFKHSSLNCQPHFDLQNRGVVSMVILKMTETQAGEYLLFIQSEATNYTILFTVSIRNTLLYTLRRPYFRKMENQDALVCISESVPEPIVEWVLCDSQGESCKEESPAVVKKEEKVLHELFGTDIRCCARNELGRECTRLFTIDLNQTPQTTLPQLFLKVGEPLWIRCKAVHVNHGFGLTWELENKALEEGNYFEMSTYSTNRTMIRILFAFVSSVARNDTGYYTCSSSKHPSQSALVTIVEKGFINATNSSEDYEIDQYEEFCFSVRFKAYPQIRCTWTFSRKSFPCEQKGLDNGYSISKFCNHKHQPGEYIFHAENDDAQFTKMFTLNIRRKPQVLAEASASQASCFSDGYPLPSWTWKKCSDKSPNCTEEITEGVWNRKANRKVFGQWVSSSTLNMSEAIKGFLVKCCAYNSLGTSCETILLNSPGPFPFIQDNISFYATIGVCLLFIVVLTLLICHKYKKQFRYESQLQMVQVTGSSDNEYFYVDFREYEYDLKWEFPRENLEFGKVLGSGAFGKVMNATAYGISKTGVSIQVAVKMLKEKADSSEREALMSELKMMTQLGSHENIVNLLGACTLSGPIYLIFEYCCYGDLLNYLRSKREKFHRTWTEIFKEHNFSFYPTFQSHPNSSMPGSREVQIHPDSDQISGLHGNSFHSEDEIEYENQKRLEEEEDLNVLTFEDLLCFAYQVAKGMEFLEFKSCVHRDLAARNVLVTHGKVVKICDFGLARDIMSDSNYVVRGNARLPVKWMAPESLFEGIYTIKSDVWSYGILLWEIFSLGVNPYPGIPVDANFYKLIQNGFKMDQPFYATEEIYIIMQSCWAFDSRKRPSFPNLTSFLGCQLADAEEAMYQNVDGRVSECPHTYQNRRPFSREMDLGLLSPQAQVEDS
# Method: as §1, §2
# as §3, with “2.5×FLT3” for “2.5×KDR”, “(160” for “(250”
# as §4, §5, §6
# Chain of HPK1 (Q92918 whole entry): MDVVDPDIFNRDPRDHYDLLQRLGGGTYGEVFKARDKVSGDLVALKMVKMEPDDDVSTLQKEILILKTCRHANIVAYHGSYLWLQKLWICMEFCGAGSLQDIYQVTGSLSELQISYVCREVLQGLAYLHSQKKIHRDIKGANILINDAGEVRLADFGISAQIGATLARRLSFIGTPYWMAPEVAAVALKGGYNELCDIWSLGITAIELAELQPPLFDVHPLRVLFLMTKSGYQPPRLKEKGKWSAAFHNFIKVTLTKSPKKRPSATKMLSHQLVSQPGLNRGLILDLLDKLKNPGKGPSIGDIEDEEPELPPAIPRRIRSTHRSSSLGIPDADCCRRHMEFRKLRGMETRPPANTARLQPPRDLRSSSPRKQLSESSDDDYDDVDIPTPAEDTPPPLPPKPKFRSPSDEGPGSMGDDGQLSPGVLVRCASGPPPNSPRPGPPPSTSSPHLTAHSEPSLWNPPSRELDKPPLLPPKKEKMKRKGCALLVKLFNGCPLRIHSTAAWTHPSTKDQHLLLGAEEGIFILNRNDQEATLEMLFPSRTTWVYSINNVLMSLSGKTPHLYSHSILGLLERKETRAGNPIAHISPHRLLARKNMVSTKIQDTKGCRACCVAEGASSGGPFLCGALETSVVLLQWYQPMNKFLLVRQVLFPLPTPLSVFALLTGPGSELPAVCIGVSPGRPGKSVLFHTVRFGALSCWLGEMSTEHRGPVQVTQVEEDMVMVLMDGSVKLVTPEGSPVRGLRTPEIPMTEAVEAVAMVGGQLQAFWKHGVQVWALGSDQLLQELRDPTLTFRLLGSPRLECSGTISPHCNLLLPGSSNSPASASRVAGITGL
# Chain of KDR (P35968 20-1356): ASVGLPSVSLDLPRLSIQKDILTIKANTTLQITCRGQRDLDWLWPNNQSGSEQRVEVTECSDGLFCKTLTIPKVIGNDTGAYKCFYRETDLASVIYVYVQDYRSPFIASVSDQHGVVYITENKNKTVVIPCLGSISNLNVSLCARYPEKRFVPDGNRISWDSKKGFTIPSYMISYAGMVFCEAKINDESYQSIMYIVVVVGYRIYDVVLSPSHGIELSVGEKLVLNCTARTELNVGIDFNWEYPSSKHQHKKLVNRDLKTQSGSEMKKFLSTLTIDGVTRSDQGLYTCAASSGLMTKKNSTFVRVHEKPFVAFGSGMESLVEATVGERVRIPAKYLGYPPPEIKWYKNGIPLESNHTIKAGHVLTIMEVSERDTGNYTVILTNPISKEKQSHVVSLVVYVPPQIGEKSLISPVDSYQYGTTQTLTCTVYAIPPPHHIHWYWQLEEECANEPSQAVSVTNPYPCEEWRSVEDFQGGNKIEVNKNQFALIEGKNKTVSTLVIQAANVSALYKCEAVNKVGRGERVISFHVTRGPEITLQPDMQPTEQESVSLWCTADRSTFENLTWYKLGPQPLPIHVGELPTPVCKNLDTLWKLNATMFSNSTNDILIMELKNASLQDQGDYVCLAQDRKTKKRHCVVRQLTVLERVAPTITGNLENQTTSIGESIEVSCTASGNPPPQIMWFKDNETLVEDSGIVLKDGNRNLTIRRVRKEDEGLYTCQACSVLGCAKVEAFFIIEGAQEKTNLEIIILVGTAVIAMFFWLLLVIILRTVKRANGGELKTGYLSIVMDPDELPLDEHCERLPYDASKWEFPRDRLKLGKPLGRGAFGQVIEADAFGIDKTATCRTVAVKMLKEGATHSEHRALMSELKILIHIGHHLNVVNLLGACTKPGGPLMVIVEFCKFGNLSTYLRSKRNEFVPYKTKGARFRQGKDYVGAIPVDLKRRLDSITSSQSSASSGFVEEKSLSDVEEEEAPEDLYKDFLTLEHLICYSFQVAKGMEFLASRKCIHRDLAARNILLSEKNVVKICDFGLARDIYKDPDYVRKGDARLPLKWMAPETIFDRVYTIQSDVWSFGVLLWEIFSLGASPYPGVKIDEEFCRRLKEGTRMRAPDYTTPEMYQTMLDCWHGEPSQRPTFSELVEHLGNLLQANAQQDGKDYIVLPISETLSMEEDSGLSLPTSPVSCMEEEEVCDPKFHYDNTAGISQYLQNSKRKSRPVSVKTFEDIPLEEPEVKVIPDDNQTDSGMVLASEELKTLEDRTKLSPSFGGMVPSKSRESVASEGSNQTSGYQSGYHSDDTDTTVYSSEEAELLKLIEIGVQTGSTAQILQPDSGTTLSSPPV
SMILES,IC50 (HPK1) [nM],IC50 (MV-4-11 cells) [nM],activity at 3 µM (Human Jurkat-E6-1 cells; tested compound 3.0 μM) [%],IC50 (KDR) [nM],IC50 (FLT3) [nM],activity at 0.33 µM (Human Jurkat-E6-1 cells) [%],activity at 1 µM (Human Jurkat-E6-1 cells) [%]
"Fc1cccc2c1-c1cc3c(n[nH]c3cn1)-c1ccc(N3CCOCC3)c(c1)OCCCO2 [Compound 5, 16-fluoro-5-(morpholin-4-yl)-7,11-dioxa-19,22,23-triazapentacyclo[16.5.2.1^2,6.0^12,17.0^21,24]hexacosa-1(23),2(26),3,5,12,14,16,18,20,24-decaene]",5 to 50,50,717,,,,
"CN1CCN(c2ccc3cc2OCCCOCc2cccc(F)c2-c2cc4c-3n[nH]c4cn2)CC1 [Compound 11, 17-fluoro-5-(4-methylpiperazin-1-yl)-7,11-dioxa-20,23,24-triazapentacyclo[17.5.2.1^2,6.0^13,18.0^22,25]heptacosa-1(24),2(27),3,5,13,15,17,19,21,25-decaene]",≤ 5,6.1,,≤ 5,≤ 5,,
"O[C@H]1COc2cc(ccc2N2CCN3CCOC[C@H]3C2)-c2n[nH]c3cnc(cc23)-c2c(F)cccc2OC1 [Compound 119, (9R)-5-[(9aR)-octahydropyrazino[2,1-c][1,4]oxazin-8-yl]-16-fluoro-7,11-dioxa-19,22,23-triazapentacyclo[16.5.2.1^2,6.0^12,17.0^21,24]hexacosa-1(23),2,4,6(26),12(17),13,15,18,20,24-decaen-9-ol]",5 to 50,,,≤ 5,≤ 5,591,
"CN1CCN(c2ccc3cc2OCCCOCc2cccc(F)c2-c2cc4c-3n[nH]c4cn2)C[C@H]1CO [Compound 122, [(2S)-4-{17-fluoro-7,11-dioxa-20,23,24-triazapentacyclo[17.5.2.1^2,6.0^13,18.0^22,25]heptacosa-1(24),2,4,6(27),13(18),14,16,19,21,25-decaen-5-yl}-1-methylpiperazin-2-yl]methanol]",≤ 5,,,≤ 5,≤ 5,345,
"CN1C2CCC1CN(c1ccc3cc1OCCCOc1cccc(F)c1-c1cc4c-3n[nH]c4cn1)C2 [Compound 144, 16-fluoro-5-{8-methyl-3,8-diazabicyclo[3.2.1]octan-3-yl}-7,11-dioxa-19,22,23-triazapentacyclo[16.5.2.1^2,6.0^12,17.0^21,24]hexacosa-1(23),2,4,6(26),12(17),13,15,18,20,24-decaene]",≤ 5,,,≤ 5,≤ 5,,517
"CN1C[C@@H]2C[C@H]1CN2c1ccc2cc1OCCCOCc1cccc(F)c1-c1cc3c-2n[nH]c3cn1 [Compound 151, 17-fluoro-5-[(1S,4S)-5-methyl-2,5-diazabicyclo[2.2.1]heptan-2-yl]-7,11-dioxa-20,23,24-triazapentacyclo[17.5.2.1^2,6.0^13,18.0^22,25]heptacosa-1(24),2,4,6(27),13(18),14,16,19,21,25-decaene]",≤ 5,,,≤ 5,≤ 5,,416
